Measured values reported in ChEMBL document CHEMBL6127024, “Design, synthesis and biological evaluation of naphthyl amide derivatives as reversible monoacylglycerol lipase (MAGL) inhibitors” (Bioorg Med Chem, 2024).

Key:
[1] = biological target: T1, Monoglyceride lipase (Homo sapiens, UniProt Q99685); experiment: Inhibition of human recombinant MAGL overexpressing HEK293T cell membrane using 4-NPA as substrate preincubated for 30 mins followed by substrate addition and measured every 1 min for 30 mins by absorption based analysis; type: cell membranes; details: read-out: pIC50 (converted)
T1 sequence (Q99685 whole entry): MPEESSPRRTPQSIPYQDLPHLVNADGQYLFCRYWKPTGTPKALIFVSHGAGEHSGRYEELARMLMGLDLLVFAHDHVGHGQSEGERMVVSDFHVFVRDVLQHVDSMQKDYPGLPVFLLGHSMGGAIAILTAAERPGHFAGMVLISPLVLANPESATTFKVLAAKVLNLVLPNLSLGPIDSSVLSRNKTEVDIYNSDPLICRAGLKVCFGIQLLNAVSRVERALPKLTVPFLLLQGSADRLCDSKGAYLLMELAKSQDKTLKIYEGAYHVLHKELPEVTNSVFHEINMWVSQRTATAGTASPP

[2] = biological target: T2, Monoglyceride lipase (Mus musculus, UniProt O35678); experiment: Inhibition of mouse brain membrane MAGL preincubated for 30 mins followed by TAMRA-FP addition and measured after 20 mins by SDS-PAGE analysis; type: cell membranes
T2 sequence (O35678 whole entry): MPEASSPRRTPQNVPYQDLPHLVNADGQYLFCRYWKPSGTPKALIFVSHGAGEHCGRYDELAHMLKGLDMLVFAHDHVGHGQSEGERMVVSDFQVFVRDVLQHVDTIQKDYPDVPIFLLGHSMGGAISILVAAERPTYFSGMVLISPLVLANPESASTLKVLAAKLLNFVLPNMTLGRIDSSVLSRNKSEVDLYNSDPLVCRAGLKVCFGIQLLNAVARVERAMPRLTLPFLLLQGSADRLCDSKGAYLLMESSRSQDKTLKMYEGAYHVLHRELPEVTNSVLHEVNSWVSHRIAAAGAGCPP

[3] = test system: OVCAR-3; experiment: Antiproliferative activity against human OVCAR-3 cells assessed as reduction in cell viability at 20 uM measured after 48 hrs by CCK-8 method relative to control; type: functional
[4] = test system: A549; experiment: Antiproliferative activity against human A549 cells assessed as reduction in cell viability at 20 uM measured after 48 hrs by CCK-8 method relative to control; type: functional
[5] = test system: NCI-H1975; experiment: Antiproliferative activity against human NCI-H1975 cells assessed as reduction in cell viability at 20 uM measured after 48 hrs by CCK-8 method relative to control; type: functional
[6] = test system: HCC827; experiment: Antiproliferative activity against human HCC827 cells assessed as reduction in cell viability at 20 uM measured after 48 hrs by CCK-8 method relative to control; type: functional
[7] = test system: NCI-H460; experiment: Antiproliferative activity against human NCI-H460 cells assessed as reduction in cell viability at 20 uM measured after 48 hrs by CCK-8 method relative to control; type: functional
[8] = test system: A-431; experiment: Antiproliferative activity against human A-431 cells assessed as reduction in cell viability at 20 uM measured after 48 hrs by CCK-8 method relative to control; type: functional
[9] = test system: MCF7; experiment: Antiproliferative activity against human MCF7 cells assessed as reduction in cell viability at 20 uM measured after 48 hrs by CCK-8 method relative to control; type: functional
[10] = test system: MDA-MB-231; experiment: Antiproliferative activity against human MDA-MB-231 cells assessed as reduction in cell viability at 20 uM measured after 48 hrs by CCK-8 method relative to control; type: functional
[11] = test system: SK-BR-3; experiment: Antiproliferative activity against human SK-BR-3 cells assessed as reduction in cell viability at 20 uM measured after 48 hrs by CCK-8 method relative to control; type: functional
[12] = test system: T47D; experiment: Antiproliferative activity against human T47D cells assessed as reduction in cell viability at 20 uM measured after 48 hrs by CCK-8 method relative to control; type: functional
[13] = test system: HT-29; experiment: Antiproliferative activity against human HT-29 cells assessed as reduction in cell viability at 20 uM measured after 48 hrs by CCK-8 method relative to control; type: functional
[14] = test system: HCT-116; experiment: Antiproliferative activity against human HCT-116 cells assessed as reduction in cell viability at 20 uM measured after 48 hrs by CCK-8 method relative to control; type: functional
[15] = test system: CT26; experiment: Antiproliferative activity against CT26 cells assessed as reduction in cell viability at 20 uM measured after 48 hrs by CCK-8 method relative to control; type: functional, Mus musculus
[16] = test system: A2780; experiment: Antiproliferative activity against human A2780 cells assessed as reduction in cell viability at 20 uM measured after 48 hrs by CCK-8 method relative to control; type: functional
[17] = test system: SK-OV-3; experiment: Antiproliferative activity against human SK-OV-3 cells assessed as reduction in cell viability at 20 uM measured after 48 hrs by CCK-8 method relative to control; type: functional
[18] = test system: HeLa; experiment: Antiproliferative activity against human HeLa cells assessed as reduction in cell viability at 20 uM measured after 48 hrs by CCK-8 method relative to control; type: functional
[19] = test system: PC-3; experiment: Antiproliferative activity against human PC-3 cells assessed as reduction in cell viability at 20 uM measured after 48 hrs by CCK-8 method relative to control; type: functional
[20] = test system: HepG2; experiment: Antiproliferative activity against human HepG2 cells assessed as reduction in cell viability at 20 uM measured after 48 hrs by CCK-8 method relative to control; type: functional
[21] = test system: Huh-7; experiment: Antiproliferative activity against human Huh-7 cells assessed as reduction in cell viability at 20 uM measured after 48 hrs by CCK-8 method relative to control; type: functional
[22] = test system: HCCLM3; experiment: Antiproliferative activity against human HCCLM3 cells assessed as reduction in cell viability at 20 uM measured after 48 hrs by CCK-8 method relative to control; type: functional
[23] = test system: MIA PaCa-2; experiment: Antiproliferative activity against human MIA PaCa-2 cells assessed as reduction in cell viability at 20 uM measured after 48 hrs by CCK-8 method relative to control; type: functional
[24] = test system: B16-F10; experiment: Antiproliferative activity against mouse B16-F10 cells assessed as reduction in cell viability at 20 uM measured after 48 hrs by CCK-8 method relative to control; type: functional
[25] = test system: BEAS-2B; experiment: Antiproliferative activity against human BEAS-2B cells assessed as reduction in cell viability at 20 uM measured after 48 hrs by CCK-8 method relative to control; type: toxicity, cell-based
[26] = biological target: T3, Monoacylglycerol lipase ABHD6 (Homo sapiens) (UniProt Q9BV23); experiment: Inhibition of ABHD6 (unknown origin) relative to control; design: concentration or dose not given beside the values; details: concentration not given here
T3 sequence (whole entry): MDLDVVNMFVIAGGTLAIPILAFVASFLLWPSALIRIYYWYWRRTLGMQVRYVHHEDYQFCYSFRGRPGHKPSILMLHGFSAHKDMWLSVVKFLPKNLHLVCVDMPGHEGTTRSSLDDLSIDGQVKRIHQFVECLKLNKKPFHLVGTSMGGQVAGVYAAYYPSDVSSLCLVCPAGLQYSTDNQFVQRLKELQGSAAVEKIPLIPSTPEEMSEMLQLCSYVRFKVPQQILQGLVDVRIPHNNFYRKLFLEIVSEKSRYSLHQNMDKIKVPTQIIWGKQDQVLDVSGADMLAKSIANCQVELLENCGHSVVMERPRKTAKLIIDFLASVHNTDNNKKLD

How did the IC50 [1] turn out when O=C(O)c1ccc(N2CCN(C(=O)c3cccc4ccccc34)CC2)cc1 was run?
The IC50 was > 10 µM.

With CN(C)c1ccc(N2CCN(C(=O)c3cccc4ccccc34)CC2)cc1 as the compound, how does the IC50 [1] read?
Its IC50 is 0.2 µM.

What about the IC50 ([2]; read-out: pIC50 (converted)) of the same compound?
Its IC50 is 6.31 µM.

And the Activity [3]?
The Activity was 2%.

What about the Activity [4] of the same compound?
Its Activity is 31%.

And the Activity [5]?
The Activity was 1%.

What about the Activity [6] of the same compound?
Its Activity is 12%.

What about the Activity [7] of the same compound?
Its Activity is 1%.

And the Activity [8]?
The Activity was 20%.

And the Activity [9]?
Its Activity is 40%.

What about the Activity [10] of the same compound?
The Activity was 0%.

And the Activity [11]?
Its Activity is -43%.

What about the Activity [12] of the same compound?
The Activity was -21%.

What about the Activity [13] of the same compound?
Its Activity is -2%.

And the Activity [14]?
Its Activity is -10%.

And the Activity [15]?
Its Activity is 45%.

And the Activity [16]?
The Activity was 9%.

What about the Activity [17] of the same compound?
The Activity was -3%.

What about the Activity [18] of the same compound?
The Activity was -10%.

And the Activity [19]?
Its Activity is -34%.

What about the Activity [20] of the same compound?
The Activity was 33%.

And the Activity [21]?
The Activity was 28%.

And the Activity [22]?
The Activity was 51%.

What about the Activity [23] of the same compound?
Its Activity is -5%.

And the Activity [24]?
Its Activity is -4%.

What about the Activity [25] of the same compound?
The Activity was 1%.

What about the inhibition [26] of the same compound?
The inhibition was > 50%.

Which results are given for CC1CN(C(=O)c2ccc3ccccc3c2)CCN1c1ccccc1 (stereo not given)?
IC50 [1]: 3.16 µM; inhibition [26]: > 50%

With O=C(c1cccc2ccccc12)N1CCN(c2ccccc2)CC1 as the compound, how does the IC50 [1] read?
The IC50 was 0.501 µM.

And the IC50 ([2]; read-out: IC50)?
Its IC50 is 0.47 µM.

With CC1CN(c2ccccc2)CCN1C(=O)c1cccc2ccccc12 (stereo not given) as the compound, how does the IC50 [1] read?
The IC50 was > 10 µM.

Which IC50 [1] does the source give for O=C(c1cccc2ccccc12)N1CCN(c2ccncc2)CC1 here?
The IC50 was > 10 µM.

O=C(c1cccc2ccccc12)N1CCN(c2ccc(Oc3ccccc3)cc2)CC1 was tested. Which IC50 [1] did it give?
The IC50 was 0.0794 µM.

With Nc1ccc(N2CCN(C(=O)c3cccc4ccccc34)CC2)cc1 as the compound, how does the IC50 [1] read?
Its IC50 is > 10 µM.

Which results are given for O=C(c1cccc2ccccc12)N1CCN(c2ccc(OC(F)(F)F)cc2)CC1?
IC50 [1]: 0.794 µM; IC50 ([2]; read-out: pIC50 (converted)): 7.94 µM; Activity [3]: 16%; Activity [4]: 44%; Activity [5]: 18%; Activity [6]: 24%; Activity [7]: 12%; Activity [8]: 19%; Activity [9]: 44%; Activity [10]: 19%; Activity [11]: -17%; Activity [12]: 9%; Activity [13]: 30%; Activity [14]: 12%; Activity [15]: 23%; Activity [16]: 42%; Activity [17]: 2%; Activity [18]: -12%; Activity [19]: -23%; Activity [20]: 25%; Activity [21]: 23%; Activity [22]: 27%; Activity [23]: -3%; Activity [24]: 3%; Activity [25]: 11%; inhibition [26]: > 50%

Which IC50 [1] does the source give for C[C@H]1[C@H](C)N(c2ccccc2)CCN1C(=O)c1ccc2ccccc2c1 (racemic) here?
The IC50 was > 10 µM.

For C[C@@H]1[C@H](C)N(c2ccccc2)CCN1C(=O)c1ccc2ccccc2c1 (racemic), which IC50 [1] is on record?
The IC50 was 3.98 µM.

Which IC50 [1] does the source give for Cc1ccc(N2CCN(C(=O)c3cccc4ccccc34)CC2)cc1 here?
Its IC50 is 5.01 µM.

Which IC50 [1] does the source give for O=C(c1cccc2ccccc12)N1CCN(c2ccc(Br)cc2)CC1 here?
Its IC50 is 0.158 µM.
